Results on four molecules are retold here after patent US20130171103A1, “METHODS FOR TREATING VIRAL CONDITIONS” (PTC Therapeutics, Inc., priority 2010, published 2013).

The structures appear in SMILES notation. Several values for one entry are separate records, joined by “and”; a condition that tells them apart may be missing. Equal values may be shown once. Where only a bound is given, the exact number is not on record here.

Series [1] is described as follows: Phase 1a single-dose study in healthy volunteers. The following applies: healthy subjects, single doses through 3 mg/kg (~210 mg), highest single dose tested. Format: in vivo, human. As for the experimental part: Initial clinical evaluation of Compound #10 was performed in healthy volunteers.
Series [2] in a line: Toxicology study in dogs through 28 days. The class given is in vivo. The following applies: doses and exposures in excess of therapeutic nonclinical doses. The source says:
(§1) Nonclinical safety testing further supports clinical development of Compound #10.

In series [3] the test system is Dengue 2. Description: Dengue 2 CPE protection assay in Vero E6 cells. The class given is cell-based. The following applies: Dengue virus, Vero C1008, Dengue 2, (+) RNA.
A short description of series [4]: in vitro. The following applies: African green monkey.
A short description of series [5]: Toxicology study in rats through 28 days. The class given is in vivo. The following applies: doses and exposures in excess of therapeutic nonclinical doses.
Source text: as §1

Series [6] relates to HSV-1. Description: HSV-1 CPE protection assay in Vero cells. Format: cell-based, herpes simplex virus-1. The following applies: Human alphaherpesvirus 1, HSV-1, DNA.
A short description of series [7]: in vitro. The following applies: African green monkey, CC50 (μM).
Series [8] relates to RSV. As to the kind of experiment: RSV CPE protection assay in Vero cells. The class given is cell-based. The note with it: human respiratory syncytial virus.
Series [9] can be described thus: Cytotoxicity (CC50) in PBMCs. Format: cell-based. The following applies: human, HIV-1 line.
Series [10] in a line: Genotoxicity studies.
Source text: as §1

Series [11] concerns HIV-1. As to the kind of experiment: HIV-1 CPE protection assay in MT-2 cells. The class given is cell-based. The note with it: Human immunodeficiency virus 1, MT2; HIV-1, Retro, MT-2, CPE protection. How it is done: (§2) The activity against HIV-1 was tested in MT2 cells and PBMCs in cell culture by preventing virus induced cytopathic effect and measuring viral p24 protein in the culture supernatant.

Series [12] deals with Adenovirus. As to the kind of experiment: Adenovirus CPE protection assay in HeLa cells. The note with it: unidentified adenovirus, DNA. Format: cell-based.
The subject of series [13] is HT1080 spheroids. As to the kind of experiment: 3-dimensional growth of HT1080 spheroids (BrdU/7-AAD FACS, morphology). Format: cell-based.
In series [14] the test system is Vero. The note with it: WNV line.
The subject of series [15] is HIV-1. As to the kind of experiment: HIV-1 p24 ELISA assay in PBMCs. The class given is cell-based. The following applies: Human immunodeficiency virus 1, PBMC, HIV-1, Retro. As for the experimental part: as §2
For orientation: An ELISA detects its analyte on a solid surface through an enzyme-linked reagent.

The test system of series [16] is HT 1080 cells. As to the kind of experiment: Kinetics of S-phase transit by BrdU incorporation into DNA. The class given is cell-based. The following applies: 18-hour treatment. How it is done:
HT 1080 cells are exposed to BrdU (bromodeoxyuridine, a synthetic nucleoside that is an analogue of thymidine and is incorporated into DNA during the S phase of cell division) (FITC BrdU Flow Kit, BD Pharmingen catalog #552598). Cells are grown and treated as described in Section 9.3.1.3 above with the exception that one hour prior to harvesting by trypsinization, BrdU (final concentration 1 μM) is added to each culture for 1 hour. Cells actively replicating DNA during this brief time incorporate the BrdU into the DNA, which can then be quantified. BrdU content is quantified using the FITC BrdU Flow Kit as instructed by the manufacturer. The process includes fixation (paraformaldehyde) and DNA staining with 7-AAD (7-amino-actinomycin D) followed by incubation with a fluoro-tagged anti-BrdU antibody that specifically recognizes BrdU incorporated into DNA. Dual channel FACS analysis permits assessment of both the DNA content of individual cells and the rate of transit across the S-phase, which is assessed based upon BrdU incorporation over the one hour treatment period.
On the technique in general: Dividing cells build labelled thymidine or BrdU into new DNA.

The test system of series [17] is Influenza A. As to the kind of experiment: microbe, parasite or virus in culture. Format: cell-based. The note with it: MDCK.
Series [18] deals with HT1080 cells. Description: Cell cycle analysis by propidium iodide staining and flow cytometry. The class given is cell-based. The following applies: for effect on cell cycle distribution / % Cells In S-Phase: normoxic; for effect on cell cycle distribution: #10 0.3-100 nM, 1205 10 nM; for % Cells In S-Phase: HT1080 cells, 100 nM, 18 hours, DMSO control 17.3, >20% considered active. (In general: In flow cytometry, cells or beads pass a laser one at a time.)

Series [19] can be described thus: Cytotoxicity (CC50) in MT-2 cells. Format: cell-based. The following applies: human, MT-2, HIV-1 line.
Series [20] can be described thus: Cytotoxicity (CC50) in HeLa cells. The following applies: human.
In series [21] the test system is HCV genotype 1b replicon. As to the kind of experiment: HCV subgenomic replicon assay, genotype 1b, standard cell culture. Format: cell-based, hepatitis C virus.
A short description of series [22]: in vitro. The following applies: human.
Series [23] is described as follows: in vitro. The following applies: dog.
The nature of series [24]: Phase 1b and Phase 2 studies in patients with neoplasia (safety). Format: in vivo, human. The following applies: 0.3 mg/kg/dose BID to 200 mg/dose TID, at least 4-6 weeks. As for the experimental part: To date, doses of 0.3 mg/kg/dose (˜20 mg/dose) (n=6), 0.6 mg/kg/dose (˜40 mg/dose) (n=9), 1.2 mg/kg/dose (˜80 mg/dose) (n=12) BID have been tested for at least 4 weeks. In addition, 100 mg/dose BID (n=52), 100 mg/dose TID (n=6), 120 mg/dose TID (n=3), 160 mg/dose TID (N=3), and 200 mg/dose TID (n=3) have been tested for at least 6 weeks of continuous treatment.

The test system of series [25] is Parainfluenza. As to the kind of experiment: Parainfluenza CPE protection assay in Vero cells. The class given is cell-based, parainfluenza virus. The note with it: (−) RNA.
Series [26] in a line: Safety pharmacology studies.
Source text: as §1

Series [27] can be described thus: Bioavailability in vivo from aqueous suspension. The note with it: administered in an aqueous suspension. How it is done:
It is anticipated that Compound 1205 can be clinically administered via a solid-dosage form. For all the studies outlined herein, Compound 1205 was lyophilized prior to formulation to minimize batch-to-batch variations in particle-size.
The compound was dissolved in acetonitrile at a concentration of 15 mg/mL. An equal amount of water was added to bring the final concentration to 7.5 mg/mL in a 1:1 acetonitrile/water solution (v/v). The solution was frozen on the shelf of the freeze dryer for a minimum of 3 hours and then lyophilized. The resulting solid was determined to be amorphous by differential scanning calorimetry and polarized light microscopy. Suspensions were prepared by the addition of 0.5% HPMC with 1% Tween-80, followed by stirring and homogenization for 2 minutes.

`COc1ccc([C@H]2c3[nH]c4ccc(Cl)cc4c3CCN2C(=O)Oc2ccc(Cl)cc2)cc1` (racemic) [#10]: the “clinical safety” value in series [1] is “acceptable safety”. Moreover, the “tolerability in toxicology study” value in series [2] and in [5] was “good tolerability” each time. Moreover, the IC50 (usually the concentration that gives 50% inhibition) in series [3] is over 1000 nM; in [6], over 1000 nM; in series [8] it was 250 nM; in series [11], 22 nM; in [12], over 1000 nM; in series [15], over 1000 nM. The IC50 in series [17] is over 1000 nM; in series [25], 29 nM. The IC90 (usually the point of the concentration-response curve where the effect stands at 90%) is over 1000 nM in [3]; over 1000 nM in series [6]; at least 160 nM in series [8]; over 1000 nM in series [12]; over 1000 nM in [17]; 44 nM in series [25]. The CC50 in series [4] is over 1000 nM; in [7], 0.7 µM and 0.083 µM; in series [9], 680 nM; in series [14], over 1000 nM; in [19], 4.1 nM; in series [20], over 1000 nM. The CC50 in [22] and in [23] was over 1000 nM each time. In addition, the “genotoxicity finding” value in [10] is recorded as “no evidence of genotoxic effects”. In addition, in series [13] (24 or 48 hours, 10 nM or 50 nM), the “percentage of spheroid cells that incorporated BrdU (cells in S-phase)” value was “not significantly altered”. In addition, the “gross morphology of spheroids” value in [13] (day 5 of treatment, 10 nM or 50 nM) was “indistinguishable from one another”. In addition, in series [13] (maintained in presence of compound for three weeks), the “morphology of spheroids” value was “no obvious morphological changes”. In addition, the “cell cycle distribution of HT1080 spheroids” value in [13] (treated for 24 hours) and in series [13] (treated for 48 hours) was “not affected” each time. Further, the “BrdU incorporated by individual cells during one-hour pulse versus DMSO control” value in series [16] was “less BrdU”. In series [16] (increasing doses (1-100 nM)), the “percentage of cells residing in S-phase” value is listed as “net increase”. Further, the “concentration from which an accumulation of cells in S phase is observed” value in series [18] (HT1080, 18 hours) is at least 1 nM. Besides, in series [18] (HT1080, 18 hours), the “effect on cell cycle distribution” value is given as “induced a redistribution of the cycling characteristics of the cell population”. Moreover, the “antiviral activity in HCV replicon systems” value in series [21] is listed as “potent in vitro inhibitory activity”. Also, the “clinical tolerability” value in [24] is “generally well tolerated”. The “safety pharmacology finding” value in series [26] is reported as “no adverse off-target effects”.

Turning to `O=C(Oc1ccc(Cl)cc1)N1CCc2c([nH]c3ccc(Cl)cc23)C1c1ccc(OCCN2CCOCC2)cc1` (stereo not drawn) [Compound 331], the “% Cells In S-Phase” value in [18] turned out to be 16.4%.

`O=C(Oc1ccc(Cl)cc1)N1CCc2c([nH]c3ccc(Cl)cc23)[C@@H]1c1ccc(OCC[C@H](O)CO)cc1` [Compound 1205]: in [27], the “bioavailability in vivo” value was “bioavailable”. Besides, the “effect on cell cycle distribution” value in [18] (HT1080, 18 hours) is “induced a redistribution of the cycling characteristics of the cell population”.

Regarding `O=C(Oc1ccc(Cl)cc1)N1CCc2c([nH]c3ccc(Cl)cc23)C1c1ccc(OCCN2CCCCC2)cc1` (stereo not drawn) [Compound 1736], the “% Cells In S-Phase” value in series [18] is listed as 16.8%.
